pIC50: −log10 of the molar value.
Biological target: bacterial protein synthesis (S30 Streptococcus pneumoniae extract)
Assay: Translation assay, firefly luciferase reporter system with S30 Streptococcus pneumoniae extract
Type: biochemical, Streptococcus pneumoniae ATCC 46919
Conditions: cell-free S30 extract from quinolone-susceptible S. pneumoniae ATCC 46919, luciferase mRNA; read-out: IC50, concentration causing 50% inhibition of bacterial protein synthesis
Method: Bacterial protein synthesis inhibitory activity of representative compounds of this invention having formula (I) and the commercially-available antibacterials in TABLE 2 was determined by translation assays using the firefly luciferase reporter system described by Murray et al., (2001), “Staphylococcus aureus Cell Extract Transcription-Translation Assay: Firefly Luciferase Reporter System for Evaluating Protein Translation Inhibitors,” Antimicrob. Agents Chemother. 45(6): 1900–1904, but replacing the Staphylococcus aureus S30 extract described therein with S30 Streptococcus pneumoniae extract from quinolone-succeptable Streptococcus pneumoniae ATCC 46919, and replacing plasmid coding for the luciferase gene with mRNA (encoding produced by in an in vitro environment transcription from the plasmid pAS10rbs3) which encoded the luciferase gene with an upstream Streptococcus pneumoniae promoter and Shine-Dalgarno site.

## CC(=O)NC[C@H]1CN(c2ccc(N3CCOCC3)c(F)c2)C(=O)O1 [Linezolid]
  pIC50: ~5.52
